In patent publication EP0514216A1, “Antihypotensive benzofuran derivatives with N-linked 1H-imidazolyl-methyl-5-carboxamide substituents” (GLAXO GROUP LIMITED, priority 1991, dated 1992):

System: renal-ligated hypertensive rats
Experiment: anti-hypertensive activity in vivo using renal-ligated hypertensive rats
Design: unit not given here
Details: for Reduction in diastolic blood pressure after 7h. i.a.: 0.5mg/kg intra-arterially (i.a.); for Reduction in diastolic blood pressure after 7h. p.o.: 0.5mg/kg orally (p.o.)
Method: Compounds of the present invention are also analysed for their anti-hypertensive activity in vivo using renal-ligated hypertensive rats.

Compound	Reduction in diastolic blood pressure after 7h. i.a.	Reduction in diastolic blood pressure after 7h. p.o.
CCc1nc(Cl)c(C(N)=O)n1Cc1ccc2oc(-c3ccccc3NS(=O)(=O)C(F)(F)F)c(Br)c2c1 [Example 1, 1-[[3-Bromo-2-[2-[[(trifluoromethyl)sulphonyl]amino]phenyl]-5-benzofuranyl]methyl]-4-chloro-2-ethyl-1H-imidazole-5-carboxamide]	-49	-55
CCCc1nc(Cl)c(C(=O)NC)n1Cc1ccc2oc(-c3ccccc3NS(=O)(=O)C(F)(F)F)c(Br)c2c1 [Example 2, 1-[[3-Bromo-2-[2-[[(trifluoromethyl)sulphonyl]amino]phenyl]-5-benzofuranyl]methyl]-4-chloro-N-methyl-2-propyl-1H-imidazole-5-carboxamide]	-43	-60
CCc1nc(Cl)c(C(=O)NC)n1Cc1ccc2oc(-c3ccccc3NS(=O)(=O)C(F)(F)F)c(Br)c2c1 [Example 12, 1-[[3-Bromo-2-[2-[[(trifluoromethyl)sulphonyl]amino]phenyl]-5-benzofuranyl]methyl]-4-chloro-2-ethyl-N-methyl-1H-imidazole-5-carboxamide]	-42	-31
CCc1nc(C)c(C(=O)NC)n1Cc1ccc2oc(-c3ccccc3NS(=O)(=O)C(F)(F)F)c(Br)c2c1 [Example 13, 1-[[3-Bromo-2-[2-[[(trifluoromethyl)sulphonyl]amino]phenyl]-5-benzofuranyl]methyl]-2-ethyl-4-methyl-N-methyl-1H-imidazole-5-carboxamide]	-39	-54
